Counter-ions that a name gives are not always drawn.
Legend:
[1] = Solid state chemical stability on storage at elevated temperature and relative humidity; type: physicochemical; conditions: for bis(POC) PMPA citrate% / mono(POC) PMPA citrate% / BPPF% / mono(POC) PMPA fumarate%: 0 days; for mono(POC) PMPA fumarate%: degradation product in stored BPPF
Description: The solid state chemical stability of cBPPF and bis(POC)PMPA·citrate salt was compared by analyzing each compound after storage under different conditions.

[2] = Hygroscopicity at 92% relative humidity; type: physicochemical; conditions: room temperature, up to 37 days
[3] = human, in vivo

Molecule: CC(C)OC(=O)OCOP(=O)(CO[C@H](C)Cn1cnc2c(N)ncnc21)OCOC(=O)OC(C)C [bis(POC) PMPA citrate]
- bis(POC) PMPA citrate% ([1]; 40°C, 75% relative humidity): 99.0%
- mono(POC) PMPA citrate% ([1]; 40°C, 75% relative humidity, degradation product in stored citrate salt): 1.0%
- bis(POC) PMPA citrate% ([1]; 60°C, 75% relative humidity): 99.0%
- mono(POC) PMPA citrate% ([1]; 60°C, 75% relative humidity, degradation product in stored citrate salt): 1.0%
- remaining at 336 h ([1]; solid, 75% rh, 40°C, 75% relative humidity, 14 days, read-out: bis(POC) PMPA citrate%): 96.9%
- remaining at 720 h ([1]; solid, 75% rh, 40°C, 75% relative humidity, 30 days, read-out: bis(POC) PMPA citrate%): 92.9%
- remaining at 1440 h ([1]; solid, 75% rh, 40°C, 75% relative humidity, 60 days, read-out: bis(POC) PMPA citrate%): 77.6%
- remaining at 72 h ([1]; solid, 75% rh, 60°C, 75% relative humidity, 3 days, read-out: bis(POC) PMPA citrate%): 24%
- remaining at 168 h ([1]; solid, 75% rh, 60°C, 75% relative humidity, 7 days, read-out: bis(POC) PMPA citrate%): 6.7%
- degraded at 336 h ([1]; solid, 40°C, 75% relative humidity, 14 days, degradation product in stored citrate salt, read-out: mono(POC) PMPA citrate%): 3.1%
- degraded at 720 h ([1]; solid, 40°C, 75% relative humidity, 30 days, degradation product in stored citrate salt, read-out: mono(POC) PMPA citrate%): 7.1%
- degraded at 1440 h ([1]; solid, 40°C, 75% relative humidity, 60 days, degradation product in stored citrate salt, read-out: mono(POC) PMPA citrate%): 22.4%
- degraded at 72 h ([1]; solid, 60°C, 75% relative humidity, 3 days, degradation product in stored citrate salt, other products were generated in addition, read-out: mono(POC) PMPA citrate%): 58.9%
- degraded at 168 h ([1]; solid, 60°C, 75% relative humidity, 7 days, degradation product in stored citrate salt, other products were generated in addition, read-out: mono(POC) PMPA citrate%): 76.2%

Molecule: 9-[2-(R)-[[bis[[(isopropoxycarbonyl)oxy]methoxy] phosphinoyl]methoxy]propyl]-adenine•fumaric acid (1:1) [BPPF]
- hygroscopicity [2]: not hygroscopic
- BPPF% ([1]; 40°C, 75% relative humidity): 99.0%
- mono(POC) PMPA fumarate% ([1]; 40°C, 75% relative humidity): 1.0%
- BPPF% ([1]; 60°C, 75% relative humidity): 99.0%
- mono(POC) PMPA fumarate% ([1]; 60°C, 75% relative humidity): 1.0%
- solid state chemical stability compared with bis(POC)PMPA citrate salt ([1]; storage at elevated temperature and relative humidity): more stable
- oral bioavailability [3]: 30-40%
